# Source: PubChem BioAssay (NCI)
#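 In this assay, cells in 96-well plates receive the compound at five concentrations for 48 hours. Endpoints are linearly interpolated between the surrounding concentrations. GI50 marks 50% less growth. The concentration for full growth arrest is given as TGI.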
# Legend:
# Experiment in all cases: inhibition of tumour cell growth, NCI panel, 48 h
# NCI-H522 lung = system: NCI-H522 lung
# ACHN renal = system: ACHN renal
# MALME-3M melanoma = system: MALME-3M melanoma
# NCI-H23 lung = system: NCI-H23 lung
# RPMI-8226 leukemia = system: RPMI-8226 leukemia
# OVCAR-5 ovarian = system: OVCAR-5 ovarian
# HCT-116 colon = system: HCT-116 colon
# HOP-62 NSCLC = system: HOP-62 NSCLC
# SF-295 CNS = system: SF-295 CNS
# NCI/ADR-RES ovarian = system: NCI/ADR-RES ovarian
Compound,TGI (NCI-H522 lung) [µM],TGI (ACHN renal) [µM],TGI (MALME-3M melanoma) [µM],TGI (NCI-H23 lung) [µM],TGI (RPMI-8226 leukemia) [µM],TGI (OVCAR-5 ovarian) [µM],TGI (HCT-116 colon) [µM],TGI (HOP-62 NSCLC) [µM],TGI (SF-295 CNS) [µM],TGI (NCI/ADR-RES ovarian) [µM],GI50 (NCI-H522 lung) [µM],GI50 (ACHN renal) [µM],GI50 (NCI-H23 lung) [µM],GI50 (RPMI-8226 leukemia) [µM],GI50 (OVCAR-5 ovarian) [µM],GI50 (NCI/ADR-RES ovarian) [µM],GI50 (HCT-116 colon) [µM],GI50 (HOP-62 NSCLC) [µM],GI50 (MALME-3M melanoma) [µM],GI50 (SF-295 CNS) [µM]
Fc1cccc(F)c1C1SCc2nc3ccccc3n21 (centres undefined),> 100,> 100,> 100,> 100,> 100,> 100,> 100,> 100,> 100,,,,,,,,,,,
CC(=O)O[C@H]1CCC2[C@@H]3CCC4C(=O)c5oncc5C[C@]4(C)C3CC[C@@]21C (some centres undefined),,> 100,> 100,> 100,> 100,> 100,,> 100,> 100,,,,,,,,,,,
COC1OC(C)C(OC(=O)C(C)(C)C)C(C)(O)C1O (centres undefined),> 100,,> 100,> 100,> 100,> 100,> 100,> 100,> 100,,,,,,,,,,,
O=C(O)C1Cc2nc[nH]c2CN1 (centres undefined),> 100,> 100,> 100,> 100,> 100,> 100,> 100,,> 100,,,,,,,,,,,
Cc1c2n(c3ccccc13)CC1C2N(C)OC1(C)C (centres undefined),> 100,> 100,> 100,> 100,> 100,> 100,> 100,> 100,> 100,,,,,,,,,,,
CC(=O)N1c2ccccc2C23CCN4CC5=CCOC(O)C(C5CC42)C13 (centres undefined),> 100,> 100,> 100,> 100,> 100,> 100,> 100,,> 100,> 100,,,,,,,,,,
CC1=CC(C)C(O)C(C)/C=C/C(O)C/C=C(/C)C(=O)CC(O)C(C)\C=C/C=C/C=C\C(=O)NC2=C(O)c3cc(C)c(O)c(c3C(=O)C2=O)C1=O (centres undefined),> 100,> 100,,> 100,> 100,> 100,> 100,> 100,> 100,> 100,,,,,,,,,,
CC(NC1CCC[C@H]1O)c1ccccc1 (mixture of isomers),> 100,> 100,> 100,> 100,> 100,,> 100,> 100,> 100,,,,,,,,,,,
Cc1ccnc2c1NC(=O)c1cccnc1N2C1CC1,> 100,> 100,,> 100,> 100,> 100,> 100,> 100,,> 100,> 100,> 100,> 100,> 100,> 100,> 100,> 100,> 100,,
CCCCCCCCCCCCCCCCCC(=O)NCCCNCCCNC(=O)CCCCCCCCCCCCCCCCC,,> 100,> 100,> 100,> 100,> 100,> 100,> 100,> 100,,,,,,,,,,,
COc1ccc2cc(C(=O)/C=C/c3ccc(OC)c(OC)c3)ccc2c1,,31.2,> 100,,20.3,,10.3,41.6,> 100,,,14.5,,4.09,,,2.69,18,> 100,35.6
Cc1ccccc1NC(=O)C(=O)Cc1nc2ccccc2s1,> 100,> 100,> 100,> 100,,> 100,> 100,> 100,> 100,,,,,,,,,,,
Oc1cccc(C2SCc3nc4ccccc4n32)c1 (centres undefined),> 100,> 100,> 100,> 100,> 100,> 100,> 100,,> 100,,,,,,,,,,,
COc1cc2c(cc1OC)-c1c(cc(OC)c(OC)c1OC)C2=O,> 100,> 100,> 100,> 100,> 100,> 100,> 100,> 100,> 100,,,,,,,,,,,
CC(C)(C)C1CCC2c3c([nH]c4ccccc34)C3C(=O)N(c4ccc(Br)cc4)C(=O)C3C2C1 (centres undefined),,35.7,> 100,38.1,38.6,56.5,91.9,39.5,63.1,,,,,,,,,,,
O=C(O)[C@@H]1C[C@@H](O)CN1,,> 100,> 100,> 100,> 100,> 100,> 100,> 100,> 100,> 100,,,,,,,,,,
COc1ccc(C(=O)C(C(=O)C(=O)Nc2nc3ccc(OC)cc3s2)c2ccc(OC)cc2)cc1 (centres undefined),,> 100,> 100,> 100,> 100,> 100,,> 100,> 100,,,,,,,,,,,
O=C1CCC(=O)c2cc(Br)ccc2N1,> 100,> 100,> 100,> 100,> 100,> 100,> 55,> 100,> 100,,,,,,,,,,,
CC(=O)Nc1ccc(/C=c2\sc3nnc(/C=C/c4ccccc4)n3c2=O)cc1,> 50,> 50,> 50,> 50,> 50,> 50,> 50,> 50,> 50,,,,,,,,,,,
COCCOC(C)C(/C=N/NC(N)=S)=N/NC(N)=S (centres undefined),> 100,> 100,,> 100,> 100,> 100,> 100,> 100,> 100,> 100,> 100,> 100,> 100,0.0725,> 100,0.0732,0.0189,> 100,,
Nc1ccc(-c2ccc(-c3nc4ccccc4[nH]3)cc2)cc1,> 53.9,> 92.8,> 52.7,> 90.6,39.9,> 100,> 100,56.6,,> 76.3,1.1,13.6,10.6,3.34,> 75.9,21.3,2.45,3.83,7.19,
N/C(=N\C(=S)N1CCCCC1)N1CCCCC1,> 100,> 100,> 100,> 100,> 100,> 100,> 100,> 100,> 100,,,,,,,,,,,
